# Data from ChEMBL document CHEMBL1201862, “PubChem BioAssay data set” (2004).
# The source made the active and inactive calls.
# Columns and labels:
# Aminopeptidase N = molecular target: T1, Aminopeptidase N (Plasmodium falciparum FcB1/Columbia, UniProt O96935); experiment: P. falciparum M1AAP inhibitors, biochemical, fluorogenic H-Leu-NHMec substrate, 1536-well (AID 1445); design: species or system Plasmodium falciparum 3D7, 3D7
# T1 sequence (O96935 whole entry): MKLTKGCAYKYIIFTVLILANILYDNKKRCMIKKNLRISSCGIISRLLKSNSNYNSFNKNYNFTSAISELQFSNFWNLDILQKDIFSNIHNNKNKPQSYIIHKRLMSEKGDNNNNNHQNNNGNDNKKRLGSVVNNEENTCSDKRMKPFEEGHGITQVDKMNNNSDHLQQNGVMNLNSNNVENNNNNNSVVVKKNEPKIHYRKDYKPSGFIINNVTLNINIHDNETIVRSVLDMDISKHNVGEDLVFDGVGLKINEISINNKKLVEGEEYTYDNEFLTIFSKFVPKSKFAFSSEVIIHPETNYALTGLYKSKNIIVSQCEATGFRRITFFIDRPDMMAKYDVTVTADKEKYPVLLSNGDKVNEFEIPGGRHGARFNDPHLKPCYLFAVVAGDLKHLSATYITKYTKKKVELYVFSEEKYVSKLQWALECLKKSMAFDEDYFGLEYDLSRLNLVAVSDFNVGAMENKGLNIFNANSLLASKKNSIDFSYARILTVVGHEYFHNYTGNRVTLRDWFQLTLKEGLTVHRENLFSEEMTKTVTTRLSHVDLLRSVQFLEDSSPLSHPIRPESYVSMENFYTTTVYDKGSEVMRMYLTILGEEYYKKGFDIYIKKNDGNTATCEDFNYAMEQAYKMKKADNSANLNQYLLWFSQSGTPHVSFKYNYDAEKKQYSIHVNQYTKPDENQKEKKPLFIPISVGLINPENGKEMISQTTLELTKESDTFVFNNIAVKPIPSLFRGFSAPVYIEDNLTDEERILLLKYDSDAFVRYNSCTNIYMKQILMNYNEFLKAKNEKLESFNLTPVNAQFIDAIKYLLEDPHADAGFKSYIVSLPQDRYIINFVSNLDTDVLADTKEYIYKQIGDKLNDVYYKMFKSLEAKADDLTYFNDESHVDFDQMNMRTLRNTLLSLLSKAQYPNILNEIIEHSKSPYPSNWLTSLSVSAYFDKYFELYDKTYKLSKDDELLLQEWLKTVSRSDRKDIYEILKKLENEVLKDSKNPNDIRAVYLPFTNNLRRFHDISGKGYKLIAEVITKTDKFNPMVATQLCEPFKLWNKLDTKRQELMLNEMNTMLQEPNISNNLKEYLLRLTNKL
# [1] = cytotoxicity in HEK-293T cells, dose response, cytotoxicity control for BCR NF-kB inhibitor project, luminescence, B-cell screen hits (AID 489021); format: functional, cell-based;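 also: HEK-293T cells carrying an NF-kB luciferase reporter; cells exposed to compound for about 14 hours before viability readout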
# Cytochrome P450 2C19 = Cytochrome P450 2C19 (Homo sapiens, UniProt P33261); experiment: Cytochrome panel assay with activity outcomes. Panel member name: p450-cyp2c19 Compounds with AC50 equal or less than 10 uM are considered active; format: functional; settings: read-out: AC50
# Sequence of Cytochrome P450 2C19 (P33261 whole entry): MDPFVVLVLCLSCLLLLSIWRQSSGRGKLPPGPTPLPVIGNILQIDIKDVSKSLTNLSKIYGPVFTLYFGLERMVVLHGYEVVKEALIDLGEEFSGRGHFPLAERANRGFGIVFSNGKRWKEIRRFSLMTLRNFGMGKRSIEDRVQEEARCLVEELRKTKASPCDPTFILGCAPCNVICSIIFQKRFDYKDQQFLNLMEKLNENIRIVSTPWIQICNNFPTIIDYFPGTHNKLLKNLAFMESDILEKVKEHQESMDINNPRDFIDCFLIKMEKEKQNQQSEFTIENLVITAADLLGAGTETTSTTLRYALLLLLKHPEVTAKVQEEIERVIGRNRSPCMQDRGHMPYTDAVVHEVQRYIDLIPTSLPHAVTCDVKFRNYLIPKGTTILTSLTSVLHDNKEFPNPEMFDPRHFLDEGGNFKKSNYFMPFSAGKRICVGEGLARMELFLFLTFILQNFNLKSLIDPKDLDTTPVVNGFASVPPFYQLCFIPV
# Cytochrome P450 2C9 = Cytochrome P450 2C9 (Homo sapiens, UniProt P11712)
# Sequence of Cytochrome P450 2C9 (P11712 whole entry): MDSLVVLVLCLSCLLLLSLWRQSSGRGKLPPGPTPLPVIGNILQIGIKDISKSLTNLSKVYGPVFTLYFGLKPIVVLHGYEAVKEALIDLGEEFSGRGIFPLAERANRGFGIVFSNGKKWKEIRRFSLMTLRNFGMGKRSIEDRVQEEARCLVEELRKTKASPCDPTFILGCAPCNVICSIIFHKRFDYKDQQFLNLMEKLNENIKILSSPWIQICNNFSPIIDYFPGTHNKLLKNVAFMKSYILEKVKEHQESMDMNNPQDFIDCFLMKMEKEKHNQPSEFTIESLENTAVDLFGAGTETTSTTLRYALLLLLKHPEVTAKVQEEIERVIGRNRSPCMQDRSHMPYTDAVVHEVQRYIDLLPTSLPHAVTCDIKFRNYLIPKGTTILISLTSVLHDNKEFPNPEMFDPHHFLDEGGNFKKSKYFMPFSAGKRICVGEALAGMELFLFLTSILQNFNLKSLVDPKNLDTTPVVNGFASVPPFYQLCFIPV
# Cytochrome P450 2D6 = Cytochrome P450 2D6 (Homo sapiens, UniProt P10635);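 also: CYP2D6 member of a cytochrome P450 panel assay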
# Sequence of Cytochrome P450 2D6 (P10635 whole entry): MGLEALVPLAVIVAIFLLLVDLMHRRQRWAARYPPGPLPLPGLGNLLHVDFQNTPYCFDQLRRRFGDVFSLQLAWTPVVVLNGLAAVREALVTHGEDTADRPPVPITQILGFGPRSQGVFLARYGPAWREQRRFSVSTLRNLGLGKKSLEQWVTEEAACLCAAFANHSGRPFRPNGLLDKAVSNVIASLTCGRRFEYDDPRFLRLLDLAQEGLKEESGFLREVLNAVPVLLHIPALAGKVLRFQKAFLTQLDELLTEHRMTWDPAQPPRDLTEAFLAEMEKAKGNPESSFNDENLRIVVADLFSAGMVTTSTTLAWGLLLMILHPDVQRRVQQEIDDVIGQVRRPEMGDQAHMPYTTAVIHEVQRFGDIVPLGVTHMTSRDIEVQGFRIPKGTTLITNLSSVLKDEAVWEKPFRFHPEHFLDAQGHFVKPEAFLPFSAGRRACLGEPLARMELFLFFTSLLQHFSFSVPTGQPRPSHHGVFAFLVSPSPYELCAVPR
# HEK293 [2] = experiment: cells; format: functional, cell-based; settings: Homo sapiens
# [3] = HepG2 cell cytotoxicity, dose response, cytotoxicity control for Shn3 inhibitor project, CellTiter-Glo, cherry-picked (AID 624134); format: functional, cell-based
# HEK293 [4] = experiment: NOD1 signaling inhibitors, primary screen, cell-based, luminescence, uHTS (AID 1578); format: functional; settings: Homo sapiens
# HEK293 [5] = experiment: cells; format: functional, cell-based; settings: Homo sapiens; remark: listed apart in the source
# [6] = Shn3 3'UTR reporter inhibitors, dose response, cell-based, Clone20 osteoblasts, firefly luciferase, cherry-picked (AID 624132); format: functional;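 also: firefly luciferase luminescence from reporter carrying the Shn3 3'UTR in osteoblasts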
# HEK293 [7] = experiment: NOD2 signaling inhibitors in MDP-stimulated cells, cell-based, uHTS, luminescence (AID 2001); format: functional; settings: Homo sapiens
# [8] = control 3'UTR Renilla luciferase suppression, dose response, counter-screen for Shn3 inhibitor project, cell-based, Clone20-Shn3RL, cherry-picked (AID 624133); format: functional
# Fatty acid synthase [9] = molecular target: T2, Fatty acid synthase (Homo sapiens, UniProt P49327); experiment: FAS thioesterase domain inhibitors, dose response, biochemical, endpoint fluorescence intensity, uHTS hits (AID 624327); format: functional;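 also: fluorescence from hydrolysis of an O-methyl fluorescein acyl ester substrate by the enzyme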
# T2 sequence (P49327 whole entry, the tested form may be a part): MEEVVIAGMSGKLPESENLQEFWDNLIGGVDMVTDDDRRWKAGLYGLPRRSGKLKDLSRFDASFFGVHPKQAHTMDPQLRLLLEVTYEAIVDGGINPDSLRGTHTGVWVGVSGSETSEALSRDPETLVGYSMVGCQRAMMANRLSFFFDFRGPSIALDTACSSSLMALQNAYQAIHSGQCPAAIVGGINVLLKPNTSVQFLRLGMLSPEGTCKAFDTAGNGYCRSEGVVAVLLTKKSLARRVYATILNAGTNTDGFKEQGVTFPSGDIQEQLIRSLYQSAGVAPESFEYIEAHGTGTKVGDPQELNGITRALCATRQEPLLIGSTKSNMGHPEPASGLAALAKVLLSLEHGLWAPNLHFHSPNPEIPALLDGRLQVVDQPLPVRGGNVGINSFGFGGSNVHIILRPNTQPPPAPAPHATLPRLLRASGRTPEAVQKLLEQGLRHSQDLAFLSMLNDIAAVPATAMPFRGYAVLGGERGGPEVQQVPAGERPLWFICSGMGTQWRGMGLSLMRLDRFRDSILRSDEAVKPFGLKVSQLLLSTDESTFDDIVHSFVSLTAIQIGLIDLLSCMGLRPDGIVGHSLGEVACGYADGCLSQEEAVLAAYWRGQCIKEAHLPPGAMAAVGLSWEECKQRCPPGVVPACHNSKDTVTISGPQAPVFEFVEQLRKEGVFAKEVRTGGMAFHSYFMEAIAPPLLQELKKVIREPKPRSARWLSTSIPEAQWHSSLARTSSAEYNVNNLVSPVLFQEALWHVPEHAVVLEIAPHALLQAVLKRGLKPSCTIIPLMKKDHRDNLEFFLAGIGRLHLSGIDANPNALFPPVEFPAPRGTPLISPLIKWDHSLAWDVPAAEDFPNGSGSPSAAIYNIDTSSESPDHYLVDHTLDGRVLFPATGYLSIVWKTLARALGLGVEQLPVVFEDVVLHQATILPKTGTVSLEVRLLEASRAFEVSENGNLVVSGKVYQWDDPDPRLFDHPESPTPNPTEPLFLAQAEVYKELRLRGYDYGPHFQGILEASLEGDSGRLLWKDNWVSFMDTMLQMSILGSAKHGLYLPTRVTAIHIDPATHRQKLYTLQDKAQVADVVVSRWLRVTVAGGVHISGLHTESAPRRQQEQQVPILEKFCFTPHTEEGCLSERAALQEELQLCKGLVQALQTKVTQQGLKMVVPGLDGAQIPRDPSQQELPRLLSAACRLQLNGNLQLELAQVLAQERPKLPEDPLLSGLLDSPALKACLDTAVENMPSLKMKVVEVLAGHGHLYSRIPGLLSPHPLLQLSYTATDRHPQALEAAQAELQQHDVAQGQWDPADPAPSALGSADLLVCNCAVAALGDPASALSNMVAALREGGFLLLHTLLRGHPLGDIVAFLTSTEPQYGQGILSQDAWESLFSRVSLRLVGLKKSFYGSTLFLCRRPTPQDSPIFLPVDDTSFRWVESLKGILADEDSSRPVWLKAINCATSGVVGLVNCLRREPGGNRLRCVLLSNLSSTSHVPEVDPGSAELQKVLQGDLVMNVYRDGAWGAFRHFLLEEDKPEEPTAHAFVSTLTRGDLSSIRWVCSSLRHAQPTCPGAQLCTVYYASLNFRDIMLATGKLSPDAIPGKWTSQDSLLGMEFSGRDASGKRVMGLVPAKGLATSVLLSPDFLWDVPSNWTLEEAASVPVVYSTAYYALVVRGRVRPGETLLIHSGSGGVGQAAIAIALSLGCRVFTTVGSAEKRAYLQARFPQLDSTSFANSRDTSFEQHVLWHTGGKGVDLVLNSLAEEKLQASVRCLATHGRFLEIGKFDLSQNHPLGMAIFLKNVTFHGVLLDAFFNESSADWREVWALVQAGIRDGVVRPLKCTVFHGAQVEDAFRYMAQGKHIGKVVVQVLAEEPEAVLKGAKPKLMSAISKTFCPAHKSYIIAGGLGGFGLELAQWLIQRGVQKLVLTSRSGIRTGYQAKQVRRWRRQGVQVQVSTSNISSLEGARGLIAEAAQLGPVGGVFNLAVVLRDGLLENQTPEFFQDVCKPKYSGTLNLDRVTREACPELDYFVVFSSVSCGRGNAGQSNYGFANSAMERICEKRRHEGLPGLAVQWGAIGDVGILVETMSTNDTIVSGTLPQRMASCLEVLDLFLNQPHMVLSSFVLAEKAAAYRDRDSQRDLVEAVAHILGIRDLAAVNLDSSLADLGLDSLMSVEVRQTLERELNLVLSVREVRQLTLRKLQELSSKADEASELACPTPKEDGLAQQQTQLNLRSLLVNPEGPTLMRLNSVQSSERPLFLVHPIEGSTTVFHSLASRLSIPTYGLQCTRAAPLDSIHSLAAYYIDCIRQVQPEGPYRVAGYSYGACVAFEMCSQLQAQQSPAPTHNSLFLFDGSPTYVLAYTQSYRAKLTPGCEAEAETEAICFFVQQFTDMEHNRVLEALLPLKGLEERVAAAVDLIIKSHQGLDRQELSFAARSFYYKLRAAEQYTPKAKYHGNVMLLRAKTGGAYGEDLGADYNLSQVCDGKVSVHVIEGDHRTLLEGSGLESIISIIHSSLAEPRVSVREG
# Fatty acid synthase [10] = molecular target: T2, Fatty acid synthase; experiment: FAS thioesterase domain inhibitors, dose response, biochemical, kinetic fluorescence intensity (AID 624326); format: functional;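 also: rate of fluorescence rise from hydrolysis of a fluorogenic O-methyl fluorescein ester substrate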
# [11] = cytotoxicity in HEK-293T cells, dose response, cytotoxicity control for TCR NF-kB inhibitor project, luminescence, T-cell screen hits (AID 489026); format: functional, cell-based;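 also: cells exposed to compound about 14 hours before the viability readout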
# Cysteine protease ATG4B = molecular target: T3, Cysteine protease ATG4B (Homo sapiens, UniProt Q9Y4P1); format: functional;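 also: Fluorescence-based dose-response confirmation assay measuring inhibition of ATG4B activity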
# T3 sequence (Q9Y4P1 whole entry): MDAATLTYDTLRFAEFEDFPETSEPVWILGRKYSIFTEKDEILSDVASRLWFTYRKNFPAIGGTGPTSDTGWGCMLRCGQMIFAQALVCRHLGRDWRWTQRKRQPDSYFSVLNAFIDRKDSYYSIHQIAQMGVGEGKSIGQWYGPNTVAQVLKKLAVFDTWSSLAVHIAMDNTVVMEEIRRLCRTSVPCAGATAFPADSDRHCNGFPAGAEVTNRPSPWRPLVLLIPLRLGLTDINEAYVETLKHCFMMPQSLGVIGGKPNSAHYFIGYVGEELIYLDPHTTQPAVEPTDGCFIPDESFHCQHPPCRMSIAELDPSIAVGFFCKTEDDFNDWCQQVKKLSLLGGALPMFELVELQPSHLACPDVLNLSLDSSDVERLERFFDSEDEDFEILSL
# Phospholipase A2 = Phospholipase A2 (Homo sapiens, UniProt P04054); format: functional;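 also: confirmatory dose-response counterscreen on phospholipase A2, testing hits that came from an ultra-high-throughput screen for ATG4B inhibitors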
# Sequence of Phospholipase A2 (P04054 whole entry): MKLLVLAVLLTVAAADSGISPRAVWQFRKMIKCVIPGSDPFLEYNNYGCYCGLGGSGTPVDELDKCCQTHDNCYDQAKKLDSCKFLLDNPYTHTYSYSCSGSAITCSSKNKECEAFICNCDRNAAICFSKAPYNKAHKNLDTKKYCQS
# [12] = system: Streptococcus sp. 'group A'; experiment: growth inhibition of control SK(-) GAS strain, dose response, counter-screen for streptokinase expression inhibitor project, luminescence, kanamycin, BacTiterGlo, confirmation (AID 1900); format: functional, organism-based
# Streptokinase A = molecular target: T4, Streptokinase A (Streptococcus pyogenes serotype M1, UniProt P10520); experiment: S. pyogenes streptokinase expression inhibitors, potency, dose response, plasminogen activation absorbance, OD405 (AID 1914); format: functional, Streptococcus pyogenes M1 GAS;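 also: secreted streptokinase activity via plasminogen activation per viability signal from cell pellet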
# T4 sequence (P10520 whole entry): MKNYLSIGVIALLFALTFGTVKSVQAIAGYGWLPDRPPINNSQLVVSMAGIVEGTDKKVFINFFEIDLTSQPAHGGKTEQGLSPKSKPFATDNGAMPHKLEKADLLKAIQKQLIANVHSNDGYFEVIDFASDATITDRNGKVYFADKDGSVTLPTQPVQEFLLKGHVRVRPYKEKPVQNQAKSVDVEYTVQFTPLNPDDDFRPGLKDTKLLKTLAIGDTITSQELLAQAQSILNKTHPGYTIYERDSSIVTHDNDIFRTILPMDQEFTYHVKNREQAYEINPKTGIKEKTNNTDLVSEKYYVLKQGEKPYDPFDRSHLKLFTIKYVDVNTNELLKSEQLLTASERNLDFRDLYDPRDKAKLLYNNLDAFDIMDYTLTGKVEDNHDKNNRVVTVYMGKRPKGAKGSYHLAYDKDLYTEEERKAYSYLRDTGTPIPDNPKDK
# [13] = Luminescence Cell-Based Dose Retest to Confirm Inhibitors of Cancer Stem Cells. [Related pubchem assays (depositor defined):AID2717, AID2721]; format: functional; settings: Homo sapiens
# Streptococcus = experiment: Group A Streptococcus viability loss, dose response, counter-screen for streptokinase expression inhibitor project, luminescence, BacTiterGlo (AID 1915); format: functional, organism-based;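 also: potency for reduction of bacterial viability or growth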
# [14] = A Cell Based Secondary Assay To Explore Cytotoxicity of Compounds that Sensitize Mycobacterium Tuberculosis to Beta-Lactam Antibiotics.; format: functional
# [15] = THP-1 cell cytotoxicity, dose response, cytotoxicity control for non-replicating M. tuberculosis project (AID 489025); format: functional
# [16] = inhibitors of intracellular T. cruzi replication, confirmation, NIH3T3 host cells, beta-gal luminescence (AID 2044); format: functional, cell-based;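 also: intracellular parasites grown in NIH/3T3 mouse fibroblasts as host cells; luminescent beta-galactosidase reporter signal from transgenic T. cruzi replicating inside host cells; inhibitors lower the luminescence signal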
# cells = format: functional
# [17] = molecular target: T5, DNA repair protein RAD52 homolog (Homo sapiens, UniProt P43351); format: functional, biochemical
# T5 sequence (P43351 whole entry): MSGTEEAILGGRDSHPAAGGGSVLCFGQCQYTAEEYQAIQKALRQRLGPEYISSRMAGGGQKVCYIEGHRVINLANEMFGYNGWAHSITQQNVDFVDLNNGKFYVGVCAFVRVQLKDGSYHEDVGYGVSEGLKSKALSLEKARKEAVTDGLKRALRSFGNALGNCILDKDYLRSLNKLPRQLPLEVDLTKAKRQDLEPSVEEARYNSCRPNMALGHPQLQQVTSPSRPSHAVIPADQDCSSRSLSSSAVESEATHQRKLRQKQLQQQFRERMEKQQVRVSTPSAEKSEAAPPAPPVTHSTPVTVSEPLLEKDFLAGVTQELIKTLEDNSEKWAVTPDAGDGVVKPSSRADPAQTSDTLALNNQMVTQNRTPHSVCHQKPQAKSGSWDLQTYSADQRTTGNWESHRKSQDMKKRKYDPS
# [18] = cytotoxicity toward NIH3T3 fibroblasts, dose response, counter-screen, cell-based, ATP luminescence, mouse fibroblasts (AID 2010); format: functional;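 also: cells exposed to compound for about 90 hours before reading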
smiles,measurement,setting,value
O=C(NNS(=O)(=O)c1ccc(Cl)cc1)c1cc(-c2ccccc2)nc2ccccc12,IC50,Aminopeptidase N,36.5 µM (active)
CN1C(=O)CC(c2ccco2)Sc2ccccc21 (stereo not given),IC50,[1],> 80 µM (inactive)
O=C(O)C1CCN(c2c([N+](=O)[O-])cc(C(F)(F)F)cc2[N+](=O)[O-])CC1,AC50,Cytochrome P450 2C19,14.1 µM (inconclusive)
same,AC50,Cytochrome P450 2C9,35.5 µM (inconclusive)
same,AC50,Cytochrome P450 2D6,inconclusive
Cc1ccccc1N(CC(=O)NC1CCCC1)C(=O)C[S+]([O-])CC(=O)Nc1ccc2c(c1)OCO2 (stereo not given),IC50,Aminopeptidase N,63.9 µM (active)
Cn1c(SCC(=O)N2CCCc3ccccc32)nc2ccccc2c1=O,IC50,HEK293 [2],13.5 µM (active)
same,AC50,[3],43.6 µM (active)
same,EC50,HEK293 [4],4.77 µM (active)
same,IC50,HEK293 [5],5.85 µM (active)
same,AC50,[6],3.46 µM (active)
same,IC50,HEK293 [7],6.57 µM (active)
same,AC50,[8],4.04 µM (active)
O=C(NCc1ccc2c(c1)OCO2)c1cc([N+](=O)[O-])ccc1N1CCOCC1,IC50,Fatty acid synthase [9],11.5 µM (active)
same,IC50,Fatty acid synthase [10],8.35 µM (active)
same,IC50,[11],> 80 µM (inactive)
CC(C)c1ccc(NC2CCCN(C(=O)c3cnn(C(C)C)c3)C2)cc1 (stereo not given),IC50,Cysteine protease ATG4B,9.04 µM (active)
same,IC50,Phospholipase A2,6.21 µM (active)
COCCn1c(C)cc2c(c1=O)C(c1ccccc1F)C(C#N)=C(N)O2 (stereo not given),AC50,Cytochrome P450 2C9,17.8 µM (inconclusive)
same,AC50,Cytochrome P450 2D6,inconclusive
CC12CCC(C/C1=N\NC1=NC(=O)/C(=C\c3cccc(Br)c3)S1)C2(C)C (stereo not given),EC50,[12],0.343 µM (active)
same,EC50,Streptokinase A,> 150 µM (not active)
same,AC50,[13],1.95 µM (active)
same,EC50,Streptococcus,2.89 µM (active)
same,CC50,[14],> 40 µM (active)
N=C(N)Nc1nc(-c2ccccc2)c2ccccc2n1,CC50,[15],21.2 µM (active)
same,EC50,[16],0.142 µM (active)
same,IC50,cells,34.5 µM (active)
same,AC50,[17],16.6 µM (active)
same,EC50,[18],> 60 µM (not active)
